Reference: patent US11945881B2, “Neoantigens expressed in ovarian cancer and their uses” (Janssen Biotech, Inc., priority 2020, dated 2024)

Key:
CD4+ T cells = assay: exogenous autologous normal donor restimulation assay, TNFα/IFNγ double positive CD4+ T cells by flow cytometry; assay type: cell-based, human; details: donor independent, peptide pool 10 μg/mL, healthy donors; for Fold change (CD4+) vs. DMSO: maximum CD4+ T-cell response (TNFα and IFNγ); for Frequency (TNFα + IFNγ + CD4 T cells): maximum CD4+ T-cell response
Protocol: (§1) The immunogenicity of neoantigens was assessed using the exogenous autologous normal donor restimulation assay. […] The lyophilized peptides were solubilized in 100% DMSO.
(§2) CD1c+ Dendritic Cells (CD1c+DC) isolated from human healthy PBMCs were thawed using media (IMDM (Gibco) supplemented with glutamine, HEPES, 5% human serum (Sigma), and 1× Pen-Strep). DC cells were resuspended in media supplemented with IL-4 (Peprotech, 20 ng/mL) and GM-CSF (Gibco, 20 ng/mL), plated in 6 well microplates, and rested overnight at 37° C. and 5% CO2 incubator. The following day, DC cells were counted and plated in a 96 well round bottom microplate at a concentration of 30,000 viable cells per well. Lyophilized neoantigen peptide pools (15-mer peptides with 8-mer overlapping peptide sequences) were solubilized in 100% DMSO with a stock concentration of 20 mg/mL Neoantigen peptides pools were added to DCs for a final concentration of 10 μg/mL and rested for 2 hours at 37° C. and 5% CO2 incubator. CEF Peptide Pool “Plus” (Cellular Technologies, Ltd.) was utilized as a positive control (each viral peptide at a final concentration of 4 ug/ml) and DMSO at the same final concentration (0.05%) as the experimental peptides was utilized as a negative control. After 2 hours, DC cells were irradiated with 50 gray of ionizing radiation. Autologous CD3+ Pan-T cells isolated from human normal PBMCs were thawed using media. Following irradiation, autologous Pan-T cells were added to the irradiated DCs at 300,000 viable cells per well. Human IL-15 (Peprotech) was added to all wells at final concentration of 10 ng/ml. Plates were incubated at 37° C. and 5% CO2 incubator for a total of 12 days. Media was refreshed every 2-3 days with IL-15 (R&D System, 10 ng/mL final concentration) and IL-2 (R&D systems, 10 IU/mL final concentration).
(§3) On Day 11, cells were re-stimulated with identical experimental peptide pools or controls, at same concentration as peptide stimulation on Day 1. Protein Inhibitor Cocktail (eBioscience) was added to every well and plate was incubated overnight for 14-16 hours at 37° C. and 5% CO2 incubator. On Day 12, cells were stained for surface and intracellular flow cytometry analysis. The cells were washed with PBS and stained with Live/Dead Fixable Aqua Dead Cell stain (Thermo-Fisher). Following the live/dead stain, cells were blocked using Biotin-Fre Fc Receptor Blocker (Accurate Chemical & Scientific Corp). Extracellular cellular flow panel ([…] per well in 50 μL) consisted of CD3 PerCP-Cy5.5 (Biolegend), CD4 BV421 (Biolegend), and CD8 APC-Cy7 (Biolegend). After extracellular staining, cells were fixed and permeabilized using Foxp3/Transcription Factor Staining Buffer Set (eBioscience) and stained for intracellular proteins (1:50 dilution) using TNFα FITC (R&D Systems) and IFNγ BV785 (Biolegend). Cells were washed and resuspended in stain buffer, analyzed, and recorded in a BD Celesta flow cytometer.
(§4) Flow cytometry analysis was conducted on FlowJo v10.6 software. Cells were gated on live, singlet, CD3+, CD4+ and CD8+ T cells. The CD8+ and CD4+ T cells were analyzed for TNFα and IFNγ expression.
(§5) The immunogenicity of neoantigens was first investigated in 9-16 healthy donors.

CD8+ T cells = assay: exogenous autologous normal donor restimulation assay, TNFα/IFNγ double positive CD8+ T cells by flow cytometry; assay type: cell-based, human; details: for Fold change (CD8+) vs. DMSO: maximum CD8+ T-cell response (TNFα and IFNγ); for Fold change (CD8+) vs. DMSO / Frequency (TNFα + IFNγ + CD8 T cells): donor independent, peptide pool 10 μg/mL, healthy donors; for Frequency (TNFα + IFNγ + CD8 T cells): maximum CD8+ T-cell response; for Immunogenic (yes/no): positive if CD8+ and/or CD4+ double positive TNFα/IFNγ frequency >=3-fold over DMSO and at least 0.01%
Protocol: as §1, §2, §3, §4, §5

Sequence | Fold change (CD4+) vs. DMSO (CD4+ T cells) [fold] | Frequency (TNFα + IFNγ + CD4 T cells) (CD4+ T cells) [%] | Fold change (CD8+) vs. DMSO (CD8+ T cells) [fold] | Frequency (TNFα + IFNγ + CD8 T cells) (CD8+ T cells) [%] | Immunogenic (yes/no) (CD8+ T cells)
STLNITLSFDSHHGHHPVSVI [FUS6, neoantigen, gene fusion PKHD1L1->EBAG9] | 26.51 | 0.11 | 4.47 | 0.096 | yes
RLDDSGIGNFITSLLNFISKFFCSFMGA [AS99, neoantigen, alternative splicing of FAM221A] | 4 | 0.077 | 160.85 | 1.43 | Yes
FQETWLAEDAAAGALSPCTIPTPPQPPLLSLPTSSGTRQ [AS97, neoantigen, alternative splicing of ETV4] | 6.12 | 0.15 | 433.66 | 1.34 | Yes
QHLQQEACVTSAGKQS [AS19, neoantigen, alternative splicing of PLEKHG4B] | 5.69 | 0.06 | 182.29 | 0.7 | Yes
PSSLPGPTGKYQSMVFGAWLMSVNISVYTLLEHG [AS140, neoantigen, alternative splicing of MUC16] | 79.1 | 0.14 | 115.04 | 0.22 | Yes
WSQDLQEGFSAPSRISAWFGPP [AS17, neoantigen, alternative splicing of KRT8] | 29.97 | 0.41 | 169.53 | 0.79 | Yes
LRLRPNRRRASSAQTAPTSSLSLWSGASRRRRPAGGHMWCTAGRPSSRSGQNLTGTCTMKPLAWETFPTCWAWWGTSWATQSGSGGMPSQAATASRCCWWWTTRWFASMARSMCRTMSSPS [AS1] | 16.77 | 0.15 | 29.8 | 0.57 | Yes
LRSLAGTYGRSPSPATRRKRSWSC [FUS25, neoantigen, gene fusion CLCF1->POLD4] | 16.49 | 0.059 | 2.79 | 0.048 | Yes
MAGGVLRRLLCREPDRDGDKGASREETVVPLHIGDPVVLPGIGQCYSALF [FUS1, neoantigen, gene fusion TSTD1->F11R] | 5.43 | 0.011 | 2.79 | 0.06 | yes
QLNLSETQFAQYAEIV [FUS2, neoantigen, gene fusion VAX2->ATP6V1B1] | 21.76 | 0.026 | 593.75 | 2.28 | yes
RSSGLTTSSEYSTHVHMPLILHQAEQELLLLINP [AS141, neoantigen, alternative splicing of MUC16] | 6.94 | 0.045 | 3.82 | 0.041 | Yes
AMAKKQRPDTAFWVQH [AS12, neoantigen, alternative splicing of IQGAP3] | 8.4 | 0.017 | 6.05 | 0.13 | Yes
CDPAAPRAVSLPGRQGSEGGEGRGLGSRPAVLGRHSSGEGGGPWGELP [AS133, neoantigen, alternative splicing of HRAS] | 54.15 | 0.16 | 171.88 | 0.84 | Yes
LLFPYNQLDLHLHRPSGSRKNEIHWDKCFSSED [AS68, neoantigen, alternative splicing of PKHD1L1] | 5.43 | 0.024 | 17.52 | 0.11 | Yes
SGCRLTLLSLSPVSSLGCPVPMP [AS107, neoantigen, alternative splicing of MUC16] | 14.89 | 0.062 | 2351.27 | 16.6 | Yes
FKIPKFSIVLSSNSAFRCDPLSSRPRCFGGSLEAP [AS27, neoantigen, alternative splicing of GTSE1] | 31.11 | 0.063 | 108.36 | 0.35 | Yes
VLRKTAHRSTTARCSCPPWLTCWPRVAAPGALSTVAREASWWLLTTEVV [AS74, neoantigen, alternative splicing of TRPM5] | 17.23 | 0.064 | 1018.49 | 6.6 | Yes
MHRKLQARSPSLCTGHPPQAA [AS75, neoantigen, alternative splicing of TSPAN10] | 3.46 | 0.014 | 2.64 | 0.16 | Yes
